Test results: patent US12065416B2, “cGAS antagonist compounds” (IMMUNESENSOR THERAPEUTICS, INC., priority 2016, dated 2024)

Assays:
[1] = system: cGAS activity in THP1 cells; assay: Cellular assay: ISRE-Gaussia luciferase reporter THP1 cells transfected with ISD (Interferon Stimulatory DNA); type: cell-based; conditions: Homo sapiens, THP-1; ISRE-Gaussia luciferase reporter THP1 cells transfected with 2 μg/mL ISD, 16 hours; read-out: THP1-ISD (Inhibition of cGAS activity in THP1 cells, IC50)
Protocol: (§1) A reporter THP1 cell line harboring a gene encoding Gaussia Luciferase under the control of 5 tandem repeats of interferon-stimulated response elements (ISRE) was used to test inhibition of cGAS activity by synthetic compounds in human cells. These cells were plated on 96-well plates at 0.3×10^6/well and incubated with various concentrations of compounds or DMSO for 5 min, followed by transfection of 2 μg/mL of ISD (Interferon Stimulatory DNA, a 45 bp DNA oligo) or mock transfected using lipofectamine 2000 (Life Technology) method, according to manufacturer's instructions. 16 hours later, 15 μL of the media from each well is transferred to a new plate, 50 μL of solution containing 50 mM Hepes-NaOH, 50 mM NaCl, 10 mM EDTA, 1 μM of coeleanterazine was added to each well and luminescence was measured immediately. Fold increase in luminescence compared to mock transfection is plotted against concentrations of each compound, and IC50 is calculated using Graphpad. To evaluate the specificity of a compound, the same procedure was performed except that cells were transfected with 2 μg/mL poly(I:C) or infected with Sendai Virus (SeV) at 50 Unit/mL, which are known to activate the RIG-I-MAVS pathway. A specific inhibitory compound should inhibit interferon induction by DNA but have minimal effect on poly(I:C) or Sendai virus induced interferon reporter gene expression.

RIG-I-MAVS pathway = assay: Specificity assay: ISRE reporter THP1 cells infected with Sendai Virus (SeV); type: cell-based; conditions: Homo sapiens, THP-1; ISRE-Gaussia luciferase reporter THP1 cells infected with Sendai Virus (SeV) at 50 Unit/mL
Protocol: as §1

[2] = biological target: T1, recombinant cGAS (aa147-522) (Homo sapiens, UniProt Q8N884); assay: In vitro assay for inhibition of cGAS activity (ATP consumption, Kinase Glo); type: biochemical; conditions: 37° C. 20 minutes, read-out: Activity (Inhibition of cGAS enzyme activity in vitro, IC50)
T1 construct: recombinant cGAS (aa147-522); His6-SUMO (N, cleaved yes); made in house; host or cells: E. coli BL21/pLys
T1 sequence (Q8N884 147-522): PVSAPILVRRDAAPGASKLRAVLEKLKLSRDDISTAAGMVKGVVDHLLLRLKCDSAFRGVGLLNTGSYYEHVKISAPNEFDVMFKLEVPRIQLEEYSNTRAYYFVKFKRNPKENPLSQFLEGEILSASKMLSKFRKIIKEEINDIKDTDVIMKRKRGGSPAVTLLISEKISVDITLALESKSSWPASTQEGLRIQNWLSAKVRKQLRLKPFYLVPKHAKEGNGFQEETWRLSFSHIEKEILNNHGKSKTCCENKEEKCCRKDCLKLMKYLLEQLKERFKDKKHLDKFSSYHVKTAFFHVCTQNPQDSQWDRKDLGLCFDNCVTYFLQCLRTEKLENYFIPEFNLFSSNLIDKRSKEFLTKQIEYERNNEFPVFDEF
How it was run: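 Human cGAS (aa147-522) at 1.5 ng/μL incubated with serially diluted compound at 37° C for 20 min; remaining ATP read by Kinase Glo luminescence. IC50 from percent ATP consumption plotted against log compound concentration.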

Compound	IC50 [1]	IC50 (RIG-I-MAVS pathway)	IC50 [2]
O=C1/C(=C/c2cc(OCc3cnc(NCc4ccncc4)nc3)c(O)cc2Br)Sc2ncccc21 [Ex200]	≤ 2500 nM	≥ 10 µM	≤ 500 nM
CNc1ncc(COc2cc(/C=C3\SC(=O)N(C)C3=O)c(Br)cc2O)cn1 [Ex148]	≤ 2500 nM	≥ 10 µM	≤ 500 nM
CC(Oc1cc(/C=C2\SC(=O)N(C)C2=O)c(Br)c(F)c1O)c1cnc(Cl)nc1 (stereo not drawn) [ExA6]	2500 to 10000 nM	2.5 to 10 µM	≤ 500 nM
Nc1ncncc1COc1cc(/C=C2\Sc3ncccc3C2=O)c(Br)cc1O [Ex73]	2500 to 10000 nM	≥ 10 µM	≤ 500 nM
O=C1/C(=C/c2cc(OCc3cnc(NCc4cccnc4)nc3)c(O)c(F)c2Br)Sc2ncccc21 [ExA3]	2500 to 10000 nM	≥ 10 µM	≤ 500 nM
CN1C(=O)S/C(=C\c2cc(OCc3cnc4ccccc4c3)c(O)cc2Br)C1=O [Ex177]	2500 to 10000 nM	≥ 10 µM	500 to 10000 nM
CN1C(=O)S/C(=C\c2cc(OCc3cnc(N)nc3C3CC3)c(O)cc2Br)C1=O [Ex171]	2500 to 10000 nM	≥ 10 µM	≤ 500 nM
CC(Oc1cc(/C=C2\SC(=O)N(C)C2=O)c(Br)c(F)c1O)c1cnc(N)nc1C(F)(F)F (stereo not drawn) [ExA7]	2500 to 10000 nM	≥ 10 µM	≤ 500 nM
O=C1/C(=C/c2cc(CC(F)(F)F)c(O)cc2Br)Sc2ncccc21 [ExB21]	2500 to 10000 nM	≥ 10 µM	≤ 500 nM
CN1C(=O)S/C(=C\c2cc(O/C=C/c3cnc(N)nc3)c(O)c(F)c2Br)C1=O [ExB2]	≤ 2500 nM	≥ 10 µM	≤ 500 nM
Cc1nc(N)ncc1COc1cc(/C=C2\SC(=O)N(C)C2=O)c(Br)cc1O [Ex170]	≤ 2500 nM	≥ 10 µM	≤ 500 nM
COCCNc1ncc(COc2cc(/C=C3\Sc4ncccc4C3=O)c(Br)cc2O)cn1 [Ex197]	2500 to 10000 nM	≥ 10 µM	≤ 500 nM
CN1C(=O)S/C(=C\c2cc(OCc3cnc(NC4CC4)nc3)c(O)cc2Br)C1=O [Ex149]	≤ 2500 nM	≥ 10 µM	500 to 10000 nM
CC(Oc1cc(/C=C2\SC(=O)N(C)C2=O)c(Br)c(F)c1O)C(O)c1cnc(N)nc1 (stereo not drawn) [ExB4]	≥ 10000 nM	≥ 10 µM	≤ 500 nM
C[S+]([O-])c1ncc(COc2cc(/C=C3\Sc4ncccc4C3=O)c(Br)c(F)c2O)cn1 (stereo not drawn) [ExA15]	2500 to 10000 nM	≥ 10 µM	500 to 10000 nM
CN1C(=O)S/C(=C\c2cc(OCc3cnc(N)nc3)c(O)c(F)c2Br)C1=O [Ex81]	≤ 2500 nM	≥ 10 µM	≤ 500 nM
CC(C)n1ccc(COc2cc(/C=C3\SC(=O)N(C)C3=O)c(Br)cc2O)cc1=O [Ex135]	2500 to 10000 nM	≥ 10 µM	500 to 10000 nM
CN1C(=O)S/C(=C\c2cc(OCc3cnc(NCCO)nc3)c(O)c(F)c2Br)C1=O [Ex152]	≤ 2500 nM	≥ 10 µM	≤ 500 nM
COc1cc(/C=C2\SC(=O)N(C)C2=O)c(Br)c(F)c1O [Ex63]	2500 to 10000 nM	≥ 10 µM	≤ 500 nM
CC(Oc1cc(/C=C2\SC(=O)N(C)C2=O)c(Br)cc1O)c1cncnc1N (stereo not drawn) [Ex80]	2500 to 10000 nM	≥ 10 µM	≤ 500 nM
O=C1/C(=C/c2cc(OC(F)(F)F)c(O)cc2Br)Sc2ncccc21 [Ex70]	2500 to 10000 nM	≥ 10 µM	500 to 10000 nM
CC(Oc1cc(/C=C2\Sc3ncccc3C2=O)c(Br)cc1O)c1cnc(N)nc1 (stereo not drawn) [Ex122]	≤ 2500 nM	≥ 10 µM	≤ 500 nM
CN1C(=O)S/C(=C\c2cc(OCc3cn(-c4ccncc4)nn3)c(O)cc2Br)C1=O [Ex233]	2500 to 10000 nM	≥ 10 µM	≥ 10000 nM
CN1C(=O)S/C(=C\c2cc3c(Cc4cnc(N)nc4)c[nH]c3c(F)c2Br)C1=O [ExB43]	≥ 10000 nM	≥ 10 µM	≤ 500 nM
CN1C(=O)S/C(=C\c2cc(OCc3cncnc3)c(O)cc2Br)C1=O [Ex140]	≤ 2500 nM	≥ 10 µM	≤ 500 nM
